Values of other authors, collected in PubChem BioAssay AID1259409 (Chemical Carcinogenesis Research Information System (CCRIS), 2018).
Several values for one entry are separate records, joined by “and”; a condition that tells them apart may be missing. Identical values can stand only once.

Tested on: rodent chemically induced tumor inhibition, incidence and multiplicity
Test: CCRIS tumor inhibitor studies

## NCCS(=O)(=O)O
Carcinogen: AZOXYMETHANE, 25843-45-2, Dose [Inhibitor]: 0, 600 PPM IN DIET BEGINNING 2 WK PRIOR TO CARCINOGEN TREATMENT AND CONTINUING FOR DURATION OF STUDY (STUDY DURATION: 56, Route [Inhibitor]: ORAL, Species: RAT, Strain/Sex: F344/MALE, Target Tissue: Type of Lesion: COLON: INVASIVE ADENOCARCINOMA, Dose [Carcinogen]: 15 MG/KG 1/WK FOR 2 WK, Promoter: NONE USED
  tumour outcome (control, treated, inhibition, significance): 34%, 16%, 53%, not significant
Carcinogen: AZOXYMETHANE, 25843-45-2, Dose [Inhibitor]: 0, 600 PPM IN DIET BEGINNING 2 WK PRIOR TO CARCINOGEN TREATMENT AND CONTINUING FOR DURATION OF STUDY (STUDY DURATION: 56, Route [Inhibitor]: ORAL, Species: RAT, Strain/Sex: F344/MALE, Target Tissue: Type of Lesion: COLON: NONINVASIVE ADENOCARCINOMA, Dose [Carcinogen]: 15 MG/KG 1/WK FOR 2 WK, Promoter: NONE USED
  tumour outcome (control, treated, inhibition, significance): 53%, 61%, -15%, not significant
Carcinogen: AZOXYMETHANE, 25843-45-2, Dose [Inhibitor]: 0, 1200 PPM IN DIET BEGINNING 2 WK PRIOR TO CARCINOGEN TREATMENT AND CONTINUING FOR DURATION OF STUDY (STUDY DURATION: 5, Route [Inhibitor]: ORAL, Species: RAT, Strain/Sex: F344/MALE, Target Tissue: Type of Lesion: COLON: INVASIVE ADENOCARCINOMA, Dose [Carcinogen]: 15 MG/KG 1/WK FOR 2 WK, Promoter: NONE USED
  tumour outcome (control, treated, inhibition, significance): 34%, 17%, 50%, not significant
Carcinogen: AZOXYMETHANE, 25843-45-2, Dose [Inhibitor]: 0, 1200 PPM IN DIET BEGINNING 2 WK PRIOR TO CARCINOGEN TREATMENT AND CONTINUING FOR DURATION OF STUDY (STUDY DURATION: 5, Route [Inhibitor]: ORAL, Species: RAT, Strain/Sex: F344/MALE, Target Tissue: Type of Lesion: COLON: NONINVASIVE ADENOCARCINOMA, Dose [Carcinogen]: 15 MG/KG 1/WK FOR 2 WK, Promoter: NONE USED
  tumour outcome (control, treated, inhibition, significance): 53%, 47%, 11%, not significant
Carcinogen: DIETHYLNITROSAMINE, 55-18-5, Dose [Inhibitor]: 0, 2000 PPM IN DIET FOR 3 WK DURING INITIATION PHASE (STUDY DURATION: 24 WK), Route [Inhibitor]: ORAL, Species: RAT, Strain/Sex: F344/MALE, Target Tissue: Type of Lesion: LIVER: HEPATOCELLULAR ADENOMA, Dose [Carcinogen]: 100 MG/KG BW 1/WK FOR 3 WK, Promoter: PHENOBARBITAL, 50-06-6
  tumour outcome (control, treated, inhibition, significance): 19/20 (95%), 12/19 (63%), 34%, p<0.02
Carcinogen: DIETHYLNITROSAMINE, 55-18-5, Dose [Inhibitor]: 0, 2000 PPM IN DIET FOR 3 WK DURING INITIATION PHASE (STUDY DURATION: 24 WK), Route [Inhibitor]: ORAL, Species: RAT, Strain/Sex: F344/MALE, Target Tissue: Type of Lesion: LIVER: HEPATOCELLULAR CARCINOMA, Dose [Carcinogen]: 100 MG/KG BW 1/WK FOR 3 WK, Promoter: PHENOBARBITAL, 50-06-6
  tumour outcome (control, treated, inhibition, significance): 14/20 (70%), 13/19 (68%), 3%, not significant
Carcinogen: DIETHYLNITROSAMINE, 55-18-5, Dose [Inhibitor]: 0, 2000 PPM IN DIET FOR 20 WK BEGINNING POST CARCINOGEN TREATMENT (STUDY DURATION: 24 WK), Route [Inhibitor]: ORAL, Species: RAT, Strain/Sex: F344/MALE, Target Tissue: Type of Lesion: LIVER: HEPATOCELLULAR ADENOMA, Dose [Carcinogen]: 100 MG/KG BW 1/WK FOR 3 WK, Promoter: NONE USED
  tumour outcome (control, treated, inhibition, significance): 3/24 (13%), 4/18 (22%), -69%, not significant
Carcinogen: DIETHYLNITROSAMINE, 55-18-5, Dose [Inhibitor]: 0, 2000 PPM IN DIET FOR 20 WK BEGINNING POST CARCINOGEN TREATMENT (STUDY DURATION: 24 WK), Route [Inhibitor]: ORAL, Species: RAT, Strain/Sex: F344/MALE, Target Tissue: Type of Lesion: LIVER: HEPATOCELLULAR ADENOMA, Dose [Carcinogen]: 100 MG/KG BW 1/WK FOR 3 WK, Promoter: PHENOBARBITAL, 50-06-6
  tumour outcome (control, treated, inhibition, significance): 19/20 (95%), 7/21 (33%), 65%, p<0.0001
Carcinogen: DIETHYLNITROSAMINE, 55-18-5, Dose [Inhibitor]: 0, 2000 PPM IN DIET FOR 20 WK BEGINNING POST CARCINOGEN TREATMENT (STUDY DURATION: 24 WK), Route [Inhibitor]: ORAL, Species: RAT, Strain/Sex: F344/MALE, Target Tissue: Type of Lesion: LIVER: HEPATOCELLULAR CARCINOMA, Dose [Carcinogen]: 100 MG/KG BW 1/WK FOR 3 WK, Promoter: NONE USED
  tumour outcome (control, treated, inhibition, significance): 7/24 (29%), 4/18 (22%), 24%, not significant
Carcinogen: DIETHYLNITROSAMINE, 55-18-5, Dose [Inhibitor]: 0, 2000 PPM IN DIET FOR 20 WK BEGINNING POST CARCINOGEN TREATMENT (STUDY DURATION: 24 WK), Route [Inhibitor]: ORAL, Species: RAT, Strain/Sex: F344/MALE, Target Tissue: Type of Lesion: LIVER: HEPATOCELLULAR CARCINOMA, Dose [Carcinogen]: 100 MG/KG BW 1/WK FOR 3 WK, Promoter: PHENOBARBITAL, 50-06-6
  tumour outcome (control, treated, inhibition, significance): 14/20 (70%), 13/21 (62%), 11%, not significant

## [Mo].[Na+].[Na+].[O-2].[O-2].[O-2].[O-2]
Carcinogen: N-METHYL-N-BENZYLNITROSAMINE, 937-40-6, Dose [Inhibitor]: 0.32 (BASAL MOLYBDENUM LEVEL), 2 PPM (HIGH MOLYBDENUM LEVEL) IN DIET BEGINNING 4 WK PRIOR TO CARCINOGEN DOSE AND CONTINU, Route [Inhibitor]: ORAL, Species: RAT, Strain/Sex: F344/MALE, Target Tissue: Type of Lesion: ESOPHAGUS: CARCINOMA, Dose [Carcinogen]: 2.5 MG/KG IN 0.2 ML OLIVE OIL 1/WK FOR 20 WK, Promoter: NONE USED
  tumour outcome (control, treated, inhibition, significance): 30/41 (73%), 20/45 (44%), 40%, p<0.01
Carcinogen: N-METHYL-N-NITROSOUREA, 684-93-5, Dose [Inhibitor]: 20 PPM IN DRINKING WATER CONCURRENTLY WITH THE CARCINOGEN (STUDY DURATION: 56 WK), Route [Inhibitor]: ORAL, Species: RAT, Strain/Sex: BD6/MALE, Target Tissue: Type of Lesion: INTESTINE: ADENOCARCINOMA, Dose [Carcinogen]: 25 MG/KG 2/WK FOR 15 WK, Promoter: NONE USED
  tumour outcome (control, treated, inhibition, significance): 6/20 (30%), 1/14 (7%), 77%, p>0.05

## CCCCCCCCC/C=C/C=C/C=C/C=C/C=C/C=C/C(=O)OCC
Carcinogen: AZOXYMETHANE, 25843-45-2, Dose [Inhibitor]: 0, 0.7 ML 2/WK FOR DURATION OF STUDY BEGINNING 1 D PRIOR TO FIRST CARCINOGEN DOSE (STUDY DURATION: 36 WK), Route [Inhibitor]: GAVAGE, Species: RAT, Strain/Sex: F344/MALE, Target Tissue: Type of Lesion: COLON/RECTUM: ADENOMA OR CARCINOMA, Dose [Carcinogen]: 15 MG/KG 1/WK FOR 2 WK, Promoter: NONE USED
  tumour outcome (control, treated, inhibition, significance): 20/40 (50%), 15/33 (45%), 10%, not significant

## CC1(C)CCC2(C(=O)OC3OC(CO)C(O)C(O)C3O)CCC3(CO)C(=CCC4C5(C)CC(O)C(O)C(C)(C(=O)OC6OC(CO)C(O)C(O)C6O)C5CCC43C)C2C1 (stereo not drawn)
Carcinogen: BENZO[A]PYRENE, 50-32-8, Dose [Inhibitor]: 0, 12.85 MG/ML IN DRINKING WATER FOR 6 WK (STUDY DURATION: 9 WK), Route [Inhibitor]: ORAL, Species: MOUSE, Strain/Sex: NIGP(S)/FEMALE, Target Tissue: Type of Lesion: LUNG: ADENOMA, Dose [Carcinogen]: 0.5 MG INJECTED IN THE SCAPULAR REGION OF NEWBORN MICE ONCE, Promoter: NONE USED
  tumour outcome (control, treated, inhibition, significance): 56%, 53%, 5%, not calculated
Carcinogen: BENZO[A]PYRENE, 50-32-8, Dose [Inhibitor]: 0, 12.85 MG/ML IN DRINKING WATER FOR 6 WK (STUDY DURATION: 9 WK), Route [Inhibitor]: ORAL, Species: MOUSE, Strain/Sex: NIGP(S)/MALE, Target Tissue: Type of Lesion: LUNG: ADENOMA, Dose [Carcinogen]: 0.5 MG INJECTED IN THE SCAPULAR REGION OF NEWBORN MICE ONCE, Promoter: NONE USED
  tumour outcome (control, treated, inhibition, significance): 38%, 37%, 3%, not calculated

## O=C(CCCN1CCC(O)(c2ccc(Cl)cc2)CC1)c1ccc(F)cc1
Carcinogen: AZOXYMETHANE, 25843-45-2, Dose [Inhibitor]: 0, 2 MG/KG BW SUSPENDED IN 1 ML/MG OLIVE OIL 1/2 D FOR STUDY DURATION (STUDY DURATION: 30 WK), Route [Inhibitor]: SUBCUTANEOUS, Species: RAT, Strain/Sex: WISTAR/MALE, Target Tissue: Type of Lesion: COLON: TUMOR, Dose [Carcinogen]: 7.4 MG/KG IN 0.9% SALINE 1/WK FOR 10 WK
  tumour outcome (control, treated, inhibition, significance): 9/17 (53%), 3/19 (16%), 70%, p<0.05

## c1ccc2c(Cc3c[nH]c4ccccc34)c[nH]c2c1
Carcinogen: BENZO[A]PYRENE, 50-32-8, Dose [Inhibitor]: 0.02 MMOL/G DIET DAILY STARTING AT 63 D OF AGE (8 D PRIOR TO START OF CARCINOGEN TREATMENT) THROUGH 98 D OF AGE FOLLOWED, Route [Inhibitor]: ORAL, Species: MOUSE, Strain/Sex: ICR/FEMALE, Target Tissue: Type of Lesion: FORESTOMACH: TUMOR, Dose [Carcinogen]: 1 MG IN 0.2 ML CORN OIL ADMINISTERED 2/WK FOR 4 WK, Promoter: NONE USED
  tumour outcome (control, treated, inhibition, significance): 93%, 94%, -1%, not significant

## CC(C)(C)c1ccccc1O
Carcinogen: BENZO[A]PYRENE, 50-32-8, Dose [Inhibitor]: 0.03 MMOL/G OF DIET DAILY STARTING 7 D BEFORE AND CONTINUING THROUGH 3 D AFTER CARCINOGEN TREATMENT FOLLOWED BY OBSERVAT, Route [Inhibitor]: ORAL, Species: MOUSE, Strain/Sex: ICR/FEMALE, Target Tissue: Type of Lesion: FORESTOMACH: NEOPLASM, Dose [Carcinogen]: 1 MG IN 0.2 ML CORN OIL 2/WK FOR 4 WK, Promoter: NONE USED
  tumour outcome (control, treated, inhibition, significance): 94%, 85%, 10%, not significant and 100%, 95%, 5%, not significant
